In patent US6054435A, “6-O-substituted macrolides having antibacterial activity” (priority 1999, dated 2000):
≈ marks a conversion by molar mass, not a printed value.

How the values were obtained:
Experiment in all cases: in vitro antibacterial activity (MIC), agar dilution
Type in all cases: cell-based
[1] = tested on: Nocardia Asteroides ATCC9970; conditions: organism code VV; BHI agar, 35-37° C., 20 to 24 hours; unit assumed
Procedure, shortened: (§1)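 Plates of BHI agar were prepared with twelve aqueous dilutions of compound, then inoculated at 1:100 dilution, or 1:10 for slow growers like Streptococcus. After incubation they were inspected, and the lowest concentration yielding no growth, slight haze or sparse colonies was recorded as MIC.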

Candida albicans CCH 442 = conditions: organism code TT; BHI agar, 35-37° C., 20 to 24 hours; unit assumed
Procedure, shortened: as §1

[2] = tested on: Staphylococcus aureus CMX 553; conditions: organism code FF; BHI agar, 35-37° C., 20 to 24 hours; unit assumed
Procedure, shortened: as §1

Escherichia coli SS = conditions: organism code RR; BHI agar, 35-37° C., 20 to 24 hours; unit assumed
Procedure, shortened: as §1

[3] = tested on: Streptococcus Pneumonia 5979; conditions: organism code ZZ; BHI agar, 35-37° C., 20 to 24 hours; unit assumed
Procedure, shortened: as §1

[4] = tested on: Staphylococcus aureus NCTC10649M; conditions: organism code EE; BHI agar, 35-37° C., 20 to 24 hours; unit assumed
Procedure, shortened: as §1

Escherichia coli JUHL = conditions: organism code QQ; BHI agar, 35-37° C., 20 to 24 hours; unit assumed
Procedure, shortened: as §1

[5] = tested on: Streptococcus Pneumonia ATCC6303; conditions: organism code XX; BHI agar, 35-37° C., 20 to 24 hours; unit assumed
Procedure, shortened: as §1

[6] = tested on: Streptococcus agalactiae CMX 508; conditions: organism code KK; BHI agar, 35-37° C., 20 to 24 hours; unit assumed
Procedure, shortened: as §1

[7] = tested on: Streptococcus Pneumonia 5649; conditions: organism code ZZA; BHI agar, 35-37° C., 20 to 24 hours; unit assumed
Procedure, shortened: as §1

[8] = tested on: Streptococcus pyogenes 930; conditions: organism code MM; BHI agar, 35-37° C., 20 to 24 hours; unit assumed
Procedure, shortened: as §1

[9] = tested on: Streptococcus pyogenes EES61; conditions: organism code LL; BHI agar, 35-37° C., 20 to 24 hours; unit assumed
Procedure, shortened: as §1

[10] = tested on: Staphylococcus aureus A-5278; conditions: organism code CC; BHI agar, 35-37° C., 20 to 24 hours; unit assumed
Procedure, shortened: as §1

[11] = tested on: Staphylococcus aureus ATCC 6538P; conditions: organism code AA; BHI agar, 35-37° C., 20 to 24 hours; unit assumed
Procedure, shortened: as §1

[12] = tested on: Micrococcus luteus ATCC 4698; conditions: organism code PP; BHI agar, 35-37° C., 20 to 24 hours; unit assumed
Procedure, shortened: as §1

[13] = tested on: Streptococcus bovis A-5169; conditions: organism code JJ; BHI agar, 35-37° C., 20 to 24 hours; unit assumed
Procedure, shortened: as §1

[14] = tested on: Staphylococcus epidermidis 3519; conditions: organism code HH; BHI agar, 35-37° C., 20 to 24 hours; unit assumed
Procedure, shortened: as §1

[15] = tested on: Staphylococcus aureus 1775; conditions: organism code GG; BHI agar, 35-37° C., 20 to 24 hours; unit assumed
Procedure, shortened: as §1

[16] = tested on: Mycobacterium smegmatis ATCC 114; conditions: organism code UU; BHI agar, 35-37° C., 20 to 24 hours; unit assumed
Procedure, shortened: as §1

[17] = tested on: Staphylococcus aureus CMX 642A; conditions: organism code DD; BHI agar, 35-37° C., 20 to 24 hours; unit assumed
Procedure, shortened: as §1

Escherichia coli DC-2 = conditions: organism code SS; BHI agar, 35-37° C., 20 to 24 hours; unit assumed
Procedure, shortened: as §1

[18] = tested on: Staphylococcus aureus A5177; conditions: organism code BB; BHI agar, 35-37° C., 20 to 24 hours; unit assumed
Procedure, shortened: as §1

[19] = tested on: Haemophilis Influenzae DILL AMP R; conditions: organism code WW; BHI agar, 35-37° C., 20 to 24 hours; unit assumed
Procedure, shortened: as §1

[20] = tested on: Streptococcus Pneumonia GYR 1171; conditions: organism code YY; BHI agar, 35-37° C., 20 to 24 hours; unit assumed
Procedure, shortened: as §1

[21] = tested on: Streptococcus pyogenes PIU 2548; conditions: organism code NN; BHI agar, 35-37° C., 20 to 24 hours; unit assumed
Procedure, shortened: as §1

[22] = tested on: Enterococcus faecium ATCC 8043; conditions: organism code II; BHI agar, 35-37° C., 20 to 24 hours; unit assumed
Procedure, shortened: as §1

[23] = tested on: Micrococcus luteus ATCC 9341; conditions: organism code OO; BHI agar, 35-37° C., 20 to 24 hours; unit assumed
Procedure, shortened: as §1

Structure (SMILES)	MIC [1]	MIC (Candida albicans CCH 442)	MIC [2]	MIC (Escherichia coli SS)	MIC [3]	MIC [4]	MIC (Escherichia coli JUHL)	MIC [5]	MIC [6]	MIC [7]	MIC [8]	MIC [9]	MIC [10]	MIC [11]	MIC [12]	MIC [13]	MIC [14]	MIC [15]	MIC [16]	MIC [17]	also measured
CC[C@H]1OC(=O)[C@H](C)C(=O)[C@H](C)[C@@H](O[C@@H]2O[C@H](C)C[C@H](N(C)C)[C@H]2O)[C@](C)(OC/C=C/c2ccc(-c3cncnc3)s2)C[C@@H](C)C(=O)[C@H](C)[C@H]2NC(=O)O[C@@]21C [Example 70]	0.02 µg/mL (≈ 0.025 µM)	> 100 µg/mL	0.1 µg/mL (≈ 0.125 µM)	0.78 µg/mL (≈ 0.976 µM)	4 µg/mL (≈ 5.01 µM)	0.2 µg/mL (≈ 0.25 µM)	100 µg/mL (≈ 125 µM)	0.015 µg/mL (≈ 0.0188 µM)	0.02 µg/mL (≈ 0.025 µM)	0.25 µg/mL (≈ 0.313 µM)	12.5 µg/mL (≈ 15.6 µM)	0.01 µg/mL (≈ 0.0125 µM)	> 100 µg/mL	0.1 µg/mL (≈ 0.125 µM)	0.1 µg/mL (≈ 0.125 µM)	0.01 µg/mL (≈ 0.0125 µM)	0.1 µg/mL (≈ 0.125 µM)	> 100 µg/mL	0.39 µg/mL (≈ 0.488 µM)	0.1 µg/mL (≈ 0.125 µM)	MIC (Escherichia coli DC-2): 100 µg/mL (≈ 125 µM); MIC [18]: 0.2 µg/mL (≈ 0.25 µM); MIC [19]: 4 µg/mL (≈ 5.01 µM); MIC [20]: 0.015 µg/mL (≈ 0.0188 µM); MIC [21]: 0.1 µg/mL (≈ 0.125 µM); MIC [22]: 0.05 µg/mL (≈ 0.0626 µM); MIC [23]: 0.02 µg/mL (≈ 0.025 µM)
CC[C@H]1OC(=O)[C@H](C)C(=O)[C@H](C)[C@@H](O[C@@H]2O[C@H](C)C[C@H](N(C)C)[C@H]2O)[C@](C)(OC/C=C/c2cnc(-c3cncnc3)s2)C[C@@H](C)C(=O)[C@H](C)[C@H]2NC(=O)O[C@@]21C [Example 59]	0.02 µg/mL (≈ 0.025 µM)	> 100 µg/mL	0.1 µg/mL (≈ 0.125 µM)	0.2 µg/mL (≈ 0.25 µM)	4 µg/mL (≈ 5 µM)	0.1 µg/mL (≈ 0.125 µM)	50 µg/mL (≈ 62.5 µM)	≤ 0.004 µg/mL	0.01 µg/mL (≈ 0.0125 µM)	0.5 µg/mL (≈ 0.625 µM)	6.2 µg/mL (≈ 7.75 µM)	0.01 µg/mL (≈ 0.0125 µM)	> 100 µg/mL	0.1 µg/mL (≈ 0.125 µM)	0.1 µg/mL (≈ 0.125 µM)	≤ 0.005 µg/mL	0.1 µg/mL (≈ 0.125 µM)	> 100 µg/mL	3.1 µg/mL (≈ 3.88 µM)	0.1 µg/mL (≈ 0.125 µM)	MIC (Escherichia coli DC-2): 50 µg/mL (≈ 62.5 µM); MIC [18]: 0.1 µg/mL (≈ 0.125 µM); MIC [19]: 4 µg/mL (≈ 5 µM); MIC [20]: ≤ 0.004 µg/mL; MIC [21]: 0.2 µg/mL (≈ 0.25 µM); MIC [22]: 0.02 µg/mL (≈ 0.025 µM); MIC [23]: 0.01 µg/mL (≈ 0.0125 µM)
CC[C@H]1OC(=O)[C@H](C)C(=O)[C@H](C)[C@@H](O[C@@H]2O[C@H](C)C[C@H](N(C)C)[C@H]2O)[C@](C)(OCC#Cc2ccc(-c3ccccc3)s2)C[C@@H](C)C(=O)[C@H](C)[C@H]2NC(=O)O[C@@]21C [Example 13]	0.78 µg/mL (≈ 0.981 µM)	> 100 µg/mL	0.39 µg/mL (≈ 0.491 µM)	3.1 µg/mL (≈ 3.9 µM)	4 µg/mL (≈ 5.03 µM)	0.78 µg/mL (≈ 0.981 µM)	> 100 µg/mL	0.25 µg/mL (≈ 0.314 µM)	0.1 µg/mL (≈ 0.126 µM)	2 µg/mL (≈ 2.52 µM)	100 µg/mL (≈ 126 µM)	0.02 µg/mL (≈ 0.0252 µM)	> 100 µg/mL	0.39 µg/mL (≈ 0.491 µM)	0.2 µg/mL (≈ 0.252 µM)	0.05 µg/mL (≈ 0.0629 µM)	0.78 µg/mL (≈ 0.981 µM)	> 100 µg/mL	1.56 µg/mL (≈ 1.96 µM)	0.39 µg/mL (≈ 0.491 µM)	MIC (Escherichia coli DC-2): > 100 µg/mL; MIC [18]: 0.39 µg/mL (≈ 0.491 µM); MIC [19]: 32 µg/mL (≈ 40.3 µM); MIC [20]: 0.25 µg/mL (≈ 0.314 µM); MIC [21]: 0.39 µg/mL (≈ 0.491 µM); MIC [22]: 0.05 µg/mL (≈ 0.0629 µM); MIC [23]: 0.05 µg/mL (≈ 0.0629 µM)
CC[C@H]1OC(=O)[C@H](C)C(=O)[C@H](C)[C@@H](O[C@@H]2O[C@H](C)C[C@H](N(C)C)[C@H]2O)[C@](C)(OC/C=C/c2ccc(-c3ccco3)s2)C[C@@H](C)C(=O)[C@H](C)[C@H]2NC(=O)O[C@@]21C [Example 77]	0.2 µg/mL (≈ 0.254 µM)	> 100 µg/mL	0.1 µg/mL (≈ 0.127 µM)	0.39 µg/mL (≈ 0.496 µM)	16 µg/mL (≈ 20.3 µM)	0.1 µg/mL (≈ 0.127 µM)	50 µg/mL (≈ 63.5 µM)	≤ 0.004 µg/mL	0.02 µg/mL (≈ 0.0254 µM)	0.25 µg/mL (≈ 0.318 µM)	12.5 µg/mL (≈ 15.9 µM)	0.05 µg/mL (≈ 0.0635 µM)	100 µg/mL (≈ 127 µM)	0.1 µg/mL (≈ 0.127 µM)	0.2 µg/mL (≈ 0.254 µM)	0.01 µg/mL (≈ 0.0127 µM)	0.1 µg/mL (≈ 0.127 µM)	100 µg/mL (≈ 127 µM)	0.78 µg/mL (≈ 0.991 µM)	0.1 µg/mL (≈ 0.127 µM)	MIC (Escherichia coli DC-2): 50 µg/mL (≈ 63.5 µM); MIC [18]: 0.1 µg/mL (≈ 0.127 µM); MIC [19]: 8 µg/mL (≈ 10.2 µM); MIC [20]: ≤ 0.004 µg/mL; MIC [21]: 0.2 µg/mL (≈ 0.254 µM); MIC [22]: 0.05 µg/mL (≈ 0.0635 µM); MIC [23]: 0.02 µg/mL (≈ 0.0254 µM)
CC[C@H]1OC(=O)[C@H](C)C(=O)[C@H](C)[C@@H](O[C@@H]2O[C@H](C)C[C@H](N(C)C)[C@H]2O)[C@](C)(OCC#Cc2ccc(-c3cncnc3)s2)C[C@@H](C)C(=O)[C@H](C)[C@H]2NC(=O)O[C@@]21C [Example 4]	0.02 µg/mL (≈ 0.0251 µM)	> 100 µg/mL	0.1 µg/mL (≈ 0.125 µM)	0.39 µg/mL (≈ 0.489 µM)	2 µg/mL (≈ 2.51 µM)	0.1 µg/mL (≈ 0.125 µM)	50 µg/mL (≈ 62.7 µM)	0.03 µg/mL (≈ 0.0376 µM)	0.01 µg/mL (≈ 0.0125 µM)	0.5 µg/mL (≈ 0.627 µM)	12.5 µg/mL (≈ 15.7 µM)	0.01 µg/mL (≈ 0.0125 µM)	> 100 µg/mL	0.1 µg/mL (≈ 0.125 µM)	0.05 µg/mL (≈ 0.0627 µM)	≤ 0.005 µg/mL	0.1 µg/mL (≈ 0.125 µM)	> 100 µg/mL	0.78 µg/mL (≈ 0.979 µM)	0.1 µg/mL (≈ 0.125 µM)	MIC (Escherichia coli DC-2): 50 µg/mL (≈ 62.7 µM); MIC [18]: 0.1 µg/mL (≈ 0.125 µM); MIC [19]: 2 µg/mL (≈ 2.51 µM); MIC [20]: 0.03 µg/mL (≈ 0.0376 µM); MIC [21]: 0.1 µg/mL (≈ 0.125 µM); MIC [22]: 0.02 µg/mL (≈ 0.0251 µM); MIC [23]: 0.01 µg/mL (≈ 0.0125 µM)
